Measured values published in patent publication US8946247B2, “Quinazoline carboxamide azetidines” (Merck Patent GmbH, priority 2010, dated 2015).

Key:
[1] = biological target: T1, P70S6K (T412E mutant) (Homo sapiens, UniProt P23443, T412E); experiment: p70S6K Enzyme Assay; assay type: biochemical; conditions: 24 μM ATP, 90 min at 25° C., Caliper mobility shift
T1 construct: purchased Millipore
Description: p70S6K inhibitor compounds were diluted and plated in 96 well plates. A reaction mixture including the following components were then added to the compound plate to initiate the enzyme reaction; P70S6K (3 nM, T412E mutant, Millipore) was mixed with 24 μM ATP in an assay buffer containing 100 mM Hepes (pH 7.5), 5 mM MgCl2, 1 mM DTT, 0.015% Brij and 1 μM of the substrate peptide FITC-AHA-AKRRRLSSLRA-OH (derived from the S6 ribosomal protein sequence, FITC=fluorescein isothiocyanate, AHA=6-aminohexanoic acid). The reaction was incubated for 90 min at 25° C., before the addition of 10 mM EDTA to stop the reaction. The proportion of substrate and product (phosphorylated) peptide was analysed on a Caliper Life Sciences Lab Chip 3000, using a pressure of −1.4 psi, and upstream and downstream voltages of −3000 and −700 respectively. Product peaks were resolved before substrate peaks on the resulting chromatograms.
To assess the inhibitory potential of the compounds, IC50-values were determined, as shown in Chemical Synthesis section above.

[2] = test system: pS6 MDA-MB-468; experiment: Cellular Activity Assay (phospho-S6 in MDA-MB-468 cells); assay type: cell-based; conditions: Homo sapiens, 2 hr compound incubation, percent pS6-positive cells
Description: MDA-MB-468 cells were grown in DMEM containing glutamine supplemented with 10% Fetal Bovine Serum (FBS) and 1× antibiotics. Cells were maintained by splitting 1:3 twice a week.
For the assay, cells were plated the evening before at a density of 4000 cells per well in black polyD lysine coated 384 well plates. Cells were incubated overnight (16 to 20 hours) in growth media. Compounds at an appropriate concentration were added to the wells and incubated for 2 hr. Controls included: i) no primary, ii) rabbit isotype, iii) propidium iodide (red) only and iv) anti-phospho-S6 antibody alone (green only). Cells were then fixed in 4% paraformaldehyde for 15-20 minutes at room temperature, then washed 3×80 ul with PBS.
50 ul 10% normal goat serum (NGS) with 0.2% triton X 100 in PBS were added and incubated for 30 to 60 minutes at room temperature. Anti-phospho-S6 antibody was diluted 1:800 2% with NGS in 0.2% TritonX-100 and 30 ul added to appropriate wells. The wells were incubated overnight at 4 degrees Celsius.
Then the wells were washed with 3×80 uL PBS. The secondary green fluorescence labeled antibody (Alexa Fluor® 488 F(ab′)2 fragment goat Anti-rabbit IgG (H+L)), was diluted 1:1500 in 2% NGS with 0.2% TritonX-100, and 30 ul were added to the appropriate wells which were then incubated in the dark at room temperature for 60 minutes. Then they were washed with 4×80 ul PBS. Propidium iodide (1.5 mM stock) was diluted 1:1000 in PBS, and 50 ul were added to the appropriate wells and incubated for 30 minutes at room temperature in the dark. Propidium iodide was not washed out. Plates were read on the Acumen Explorer.
Red and green cell populations were determined using controls. The number of green cells (pS6) and total number of cells (red) were then counted and the percentage of green cells was calculated. Percent positive cell data was plotted on a log scale against concentration of compounds and IC50 values were calculated from dose response curves.

[3] = biological target: T2, Akt1 (Homo sapiens, UniProt P31749); experiment: AKT/PKB Kinase Assay; assay type: biochemical; conditions: His-AKT (Full Length), 160 uM ATP, 90 min at 25 C
T2 construct: 0.1 ng/ul His-AKT (Full Length), (Invitrogen, Part #P2999, Lot #641228C); His; purchased Invitrogen P2999
T2 sequence (P31749 whole entry): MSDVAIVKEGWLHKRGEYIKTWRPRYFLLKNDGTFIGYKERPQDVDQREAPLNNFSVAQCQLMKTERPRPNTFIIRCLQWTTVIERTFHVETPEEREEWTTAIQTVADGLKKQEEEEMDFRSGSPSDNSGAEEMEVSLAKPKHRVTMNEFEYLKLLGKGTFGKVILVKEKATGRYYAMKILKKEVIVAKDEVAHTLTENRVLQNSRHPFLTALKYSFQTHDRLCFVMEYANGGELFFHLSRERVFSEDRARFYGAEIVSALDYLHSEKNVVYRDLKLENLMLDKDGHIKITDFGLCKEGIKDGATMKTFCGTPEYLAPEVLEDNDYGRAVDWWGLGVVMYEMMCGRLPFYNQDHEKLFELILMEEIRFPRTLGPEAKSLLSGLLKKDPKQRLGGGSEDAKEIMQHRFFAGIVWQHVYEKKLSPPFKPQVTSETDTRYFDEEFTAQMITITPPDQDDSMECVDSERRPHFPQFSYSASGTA
Description: In order to measure AKT inhibition in the Caliper Life Sciences LC3000, a TTP Mosquito liquid handling instrument was used to place 125 nl of the appropriate concentration of inhibitor in 100% DMSO (for a dose response curve calculation) into each well of a 384-well plate. To this reaction components were added to a final volume of 12.5 ul: • 0.1 ng/ul His-AKT (Full Length), (Invitrogen, Part #P2999, Lot #641228C) • 160 uM ATP (Fluke, 02055) • 1 mM DTT (Sigma, D0632) • 1 mM MgCl2 (Sigma, M1028) • 1 uM substrate peptide (sequence FITC-AHA-GRPRTSSFAEG-NH2), synthesized by Tufts Peptide Synthesis service. • 100 mM HEPES pH 7.5 (Calbiochem, 391338) • 0.015% Brij-35 (Sigma, B4184)
(§1) The reaction was incubated for 90 min at 25 C, and then stopped by the addition of 70 ul of Stop buffer (100 mM HEPES pH 7.5, 0.015% Brij-35, 10 mM EDTA (Sigma, E7889)).
The plate was read on a Caliper LC 3000 in an Off-Chip mobility shift assay format, using the following parameters for a 12-sipper chip: screening pressure −2.3 psi, upstream voltage −500, and downstream voltage −3000.
These conditions cause unphosphorylated substrate and phosphorylated product peptide to resolve as separate peaks allowing direct measurement of percentage of conversion of substrate to product. The percent conversion was plotted against concentration of inhibitor to produce a sigmoidal dose response curve, from which an IC50 was calculated.

[4] = biological target: T3, Aurora B (Homo sapiens, UniProt Q96GD4); experiment: Aurora B Kinase Assay; assay type: biochemical; conditions: for IC50: GST-Aurora B (1-344), 10 uM ATP, 90 min at 25 C
T3 construct: GST-Aurora B (1-344 amino acids); GST (N); purchased Carna Biosciences 05-102
T3 sequence (Q96GD4 whole entry, the tested form may be a part): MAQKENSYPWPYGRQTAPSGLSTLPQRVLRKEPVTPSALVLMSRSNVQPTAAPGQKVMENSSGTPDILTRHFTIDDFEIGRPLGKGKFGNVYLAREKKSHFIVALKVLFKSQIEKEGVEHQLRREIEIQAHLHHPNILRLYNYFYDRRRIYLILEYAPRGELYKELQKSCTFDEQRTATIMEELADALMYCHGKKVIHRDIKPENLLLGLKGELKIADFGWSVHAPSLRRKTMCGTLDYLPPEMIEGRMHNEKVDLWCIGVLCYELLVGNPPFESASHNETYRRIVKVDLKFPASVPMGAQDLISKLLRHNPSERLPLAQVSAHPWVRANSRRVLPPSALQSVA
T3 sequence (Q9NQS7 803-918 partner limits assumed): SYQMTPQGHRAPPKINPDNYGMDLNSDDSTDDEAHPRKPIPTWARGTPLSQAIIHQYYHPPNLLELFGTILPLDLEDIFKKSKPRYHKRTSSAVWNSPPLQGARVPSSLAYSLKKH
Description: To measure inhibitor activity of Aurora B inhibitors in the Caliper Life Sciences LC3000, a TTP Mosquito liquid handling instrument was used to place 0.25 ul of the appropriate concentration of inhibitor in 100% DMSO (for a dose response curve calculation) into each well of a 384-well plate. To this reaction components was added to a final volume of 25 ul: • 0.1 ng/ul GST-Aurora B (1-344 amino acids), (Carna Biosciences 05-102. N-terminal GST fusion with His tagged INCEP, accession number Q96GD4). • 10 uM ATP (Fluka, 02055) • 1 mM DTT (Sigma, D0632) • 1 mM MgCl2 (Sigma, M1028) • 1 uM substrate peptide (sequence FITC-LRRASLG-(CONH2), synthesized by Tufts Peptide Synthesis service. • 100 mM HEPES pH 7.5 (Calbiochem, 391338) • 0.015% Brij-35 (Sigma, B4184)
as §1
The plate was read on a Caliper LC 3000 in an Off-Chip mobility shift assay format, using the following parameters for a 12-sipper chip: screening pressure −1.8 psi, upstream voltage −2700, downstream voltage −1000. These conditions caused unphosphorylated substrate and phosphorylated product peptide to resolve as separate peaks allowing direct measurement of percentage of conversion of substrate to product. The percent conversion was plotted against concentration of inhibitor to produce a sigmoidal dose response curve, from which an IC50 was calculated using XLFit for Microsoft Excel.

T1 sequence (P23443 1-421 T412E limits assumed): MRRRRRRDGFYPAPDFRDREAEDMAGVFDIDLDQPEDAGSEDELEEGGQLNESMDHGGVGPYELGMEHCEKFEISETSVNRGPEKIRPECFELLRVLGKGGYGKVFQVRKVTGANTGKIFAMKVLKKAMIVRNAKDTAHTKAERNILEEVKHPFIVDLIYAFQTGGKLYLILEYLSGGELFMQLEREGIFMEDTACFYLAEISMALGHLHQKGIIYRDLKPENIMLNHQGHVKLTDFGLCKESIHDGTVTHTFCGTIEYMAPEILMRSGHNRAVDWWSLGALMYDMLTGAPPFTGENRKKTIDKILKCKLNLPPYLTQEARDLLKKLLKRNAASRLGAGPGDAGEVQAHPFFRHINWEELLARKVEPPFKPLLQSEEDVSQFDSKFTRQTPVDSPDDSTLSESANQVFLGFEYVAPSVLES

Structure (SMILES) | IC50 [1] [nM] | IC50 [2] [µM] | IC50 [3] [nM] | IC50 [4] [nM] | Aurora B/p70S6K inhibitory ratio ([4]; ratio of Aurora B to p70S6K inhibition) | IC50 ([2]; head printed in uM) [µM]
NC(=O)c1cccc2c(N[C@H](CN3CCC3)c3cccc(F)c3)ncnc12 [Example 1, 4-[(S)-2-Azetidin-1-yl-1-(3-fluorophenyl)-ethylamino]-quinazoline-8-carboxylic acid amide] | 5.6 | 0.07 | 22 | 45 | 28 | 
NC(=O)c1cccc2c(N[C@H](CN3CCC3)c3cccc(Cl)c3)ncnc12 [Example 2, 4-[(S)-2-Azetidin-1-yl-1-(3-chlorophenyl)-ethylamino]-quinazoline-8-carboxylic acid amide] | 1.1 | 0.016 | 10 | 47 |  | 
NC(=O)c1cccc2c(N[C@H](CN3CCC3)c3ccc(F)cc3)ncnc12 [Example 3, 4-[(S)-2-Azetidin-1-yl-1-(4-fluorophenyl)-ethylamino]-quinazoline-8-carboxylic acid amide] | 7.8 | 0.103 | 23 | 41 |  | 
NC(=O)c1cccc2c(N[C@H](CN3CCC3)c3ccc(F)c(F)c3)ncnc12 [Example 4, 4-[(S)-2-Azetidin-1-yl-1-(3,4-difluorophenyl)-ethylamino]-quinazoline-8-carboxylic acid amide] | 1.2 | 0.074 | 4.1 | 56 |  | 
NC(=O)c1cccc2c(N[C@H](CN3CCC3)c3ccc(Cl)c(C(F)(F)F)c3)ncnc12 [Example 5, 4-[(S)-2-Azetidin-1-yl-1-(4-chloro-3-trifluoromethylphenyl)-ethylamino]-quinazoline-8-carboxylic acid amide] | 0.9 | 0.011 | 1.4 | 100 |  | 
NC(=O)c1cccc2c(N[C@H](CN3CCC3)c3ccccc3)ncnc12 [Example 21, 4-[(S)-2-Azetidin-1-yl-1-phenyl-ethylamino]-quinazoline-8-carboxylic acid amide] | 11 | 3.1 |  |  |  | 
NC(=O)c1cccc2c(N[C@H](CN3CC(F)C3)c3cccc(Cl)c3)ncnc12 [Example 22, 4-[(S)-2-(3-Fluoro-azetidin-1-yl)-1-(3-chlorophenyl)-ethylamino]-quinazoline-8-carboxylic acid amide] | 2.4 | 0.324 | 72 |  |  | 
NC(=O)c1cccc2c(N[C@H](CN3CCC3)c3ccc(OC(F)(F)F)c(Cl)c3)ncnc12 [Example 28, 4-[(S)-2-Azetidin-1-yl-1-(3-chloro-4-trifluoromethoxy-phenyl)-ethylamino]-quinazoline-8-carboxylic acid amide] | 2.4 | 0.061 |  | 690 |  | 
NC(=O)c1cccc2c(N[C@H](CN3CCC3)c3ccc(Cl)c(F)c3)ncnc12 [Example 29, 4-[(S)-2-Azetidin-1-yl-1-(4-chloro-3-fluoro-phenyl)-ethylamino]-quinazoline-8-carboxylic acid amide] | 1.6 | 0.019 | 7.7 |  |  | 
NC(=O)c1cccc2c(N[C@H](CN3CC(F)(F)C3)c3ccc(Cl)cc3)ncnc12 [Example 32, 4-[(S)-1-(4-Chloro-phenyl)-2-(3,3-difluoro-azetidin-1-yl)-ethylamino]-quinazoline-8-carboxylic acid amide] | 42 | > 0.01 |  | 340 |  | 
NC(=O)c1cccc2c(N[C@H](CN3CC(O)C3)c3ccc(F)c(F)c3)ncnc12 [Example 33, 4-[(S)-1-(3,4-Difluoro-phenyl)-2-(3-hydroxy-azetidin-1-yl)-ethylamino]-quinazoline-8-carboxylic acid amide] | 4.6 |  |  | 210 |  | 
CC(C)c1ccc([C@@H](CN2CCC2)Nc2ncnc3c(C(N)=O)cccc23)cc1 [Example 34, 4-[(S)-2-Azetidin-1-yl-1-(4-isopropylphenyl)-ethylamino]-quinazoline-8-carboxylic acid amide] | 0.8 | 0.063 |  |  |  | 
NC(=O)c1ccc([C@@H](CN2CCC2)Nc2ncnc3c(C(N)=O)cccc23)cc1 [Example 35, 4-[(S)-2-Azetidin-1-yl-1-(4-carbamoylphenyl)-ethylamino]-quinazoline-8-carboxylic acid amide] | 8.6 | 0.577 |  |  |  | 
CC(C)Oc1ccc([C@@H](CN2CCC2)Nc2ncnc3c(C(N)=O)cccc23)cc1 [Example 36, 4-[(S)-2-Azetidin-1-yl-1-(4-isopropoxyphenyl)-ethylamino]-quinazoline-8-carboxylic acid amide] | 400 |  |  |  |  | > 10
COc1cc([C@@H](CN2CCC2)Nc2ncnc3c(C(N)=O)cccc23)cc(F)c1F [Example 40, 4-[(S)-2-Azetidin-1-yl-1-(3,4-difluoro-5-methoxyphenyl)-ethylamino]-quinazoline-8-carboxylic acid amide] | 130 |  |  | > 1 |  | > 10
NC(=O)c1cc(F)cc2c(N[C@H](CN3CCC3)c3ccc(Cl)c(F)c3)ncnc12 [Example 51, 4-[(S)-2-Azetidin-1-yl-1-(4-chloro-3-fluoro-phenyl)-ethylamino]-6-fluoro-quinazoline-8-carboxylic acid amide] | 1 | 0.064 |  | 54 |  | 
